Measured values published in PMC7955776 (Investigational new drugs, 2020).
Values joined by “and” are separate entries in the source; they are usually repeats but may differ in a detail not shown here. Identical values can stand only once. Marks after values point to notes of the source that are not given here.

Experiments:
[1] = Phase I 3 + 3 dose escalation: DLT and MTD; settings: human, in vivo
[2] = Safety: adverse events graded by CTCAE v4.0; format: in vivo, human; settings: with paclitaxel and carboplatin
[3] = RO4929097 plasma pharmacokinetics; format: in vivo, human; settings: for AUC(0-inf) / Cmax / half-life / Vd/F: human, plasma, oral; for Vd/F: Vz/F
stage II-III TNBC = test: Clinico-pathological response to neoadjuvant treatment; format: in vivo, human
[4] = ECG monitoring during cycle 1; format: in vivo, human; settings: 10 patients, cycle 1, before and after dosing on days 1 and 17
[5] = 20 mg dose, Cycle 1 Day 15, N = 3, mean ± SD
[6] = 10 mg, 10 mg dose, Cycle 1 Day 1, N = 8, mean ± SD
[7] = 10 mg, 10 mg dose, Cycle 1 Day 15, N = 7, mean ± SD
[8] = 10 mg, 10 mg dose, Cycle 1 Day 17, N = 6, mean ± SD
[9] = 20 mg, 20 mg dose, Cycle 1 Day 1, N = 4, mean ± SD
[10] = 20 mg, 20 mg dose, Cycle 1 Day 15, N = 3, mean ± SD
[11] = 20 mg, 20 mg dose, Cycle 1 Day 17, N = 2, mean ± SD

CC(C)(C(=O)NCC(F)(F)C(F)(F)F)C(=O)N[C@@H]1C(=O)Nc2ccccc2-c2ccccc21 [RO4929097]
DLTs observed, all dose levels [1]: 2 | SAE: depression ([2]; N = 1): 7% | SAE: glucose intolerance ([2]; N = 1): 7% | SAE: hyperglycemia ([2]; N = 1): 7% | SAE: leukopenia ([2]; N = 1): 7% | SAE: neutropenia ([2]; N = 1): 7% | SAE: thrombocytopenia ([2]; N = 1): 7% | SAE: wound dehiscence ([2]; N = 1): 7% | SAE: wound infection ([2]; N = 1): 7% | SAE: hypertension ([2]; N = 3): 21% | Serious adverse events (SAEs) reported, number ([2]; duration of study): Eleven | Alopecia, All Grades ([2]; treatment-related AE, N = 14): 9 (64) N (%) | Alopecia, Grade 1 ([2]; treatment-related AE, N = 14): 3 (21) N (%) | Alopecia, Grade 2 ([2]; treatment-related AE, N = 14): 6 (43) N (%) | Alopecia, Grade 3 ([2]; treatment-related AE, N = 14): 0 (0) N (%) | Alopecia, Grade 4 ([2]; treatment-related AE, N = 14): 0 (0) N (%) | Anemia, All Grades ([2]; treatment-related AE, N = 14): 12 (86) N (%) | Anemia, Grade 1 ([2]; treatment-related AE, N = 14): 0 (0) N (%) | Anemia, Grade 2 ([2]; treatment-related AE, N = 14): 8 (57) N (%) | Anemia, Grade 3 ([2]; treatment-related AE, N = 14): 4 (29%) N (%) and 4 (29) N (%) | Anemia, Grade 4 ([2]; treatment-related AE, N = 14): 0 (0) N (%) | Anorexia, All Grades ([2]; treatment-related AE, N = 14): 9 (64) N (%) | Anorexia, Grade 1 ([2]; treatment-related AE, N = 14): 8 (57) N (%) | Anorexia, Grade 2 ([2]; treatment-related AE, N = 14): 1 (7) N (%) | Anorexia, Grade 3 ([2]; treatment-related AE, N = 14): 0 (0) N (%) | Anorexia, Grade 4 ([2]; treatment-related AE, N = 14): 0 (0) N (%) | Constipation, All Grades ([2]; treatment-related AE, N = 14): 10 (71) N (%) | Constipation, Grade 1 ([2]; treatment-related AE, N = 14): 10 (71) N (%) | Constipation, Grade 2 ([2]; treatment-related AE, N = 14): 0 (0) N (%) | Constipation, Grade 3 ([2]; treatment-related AE, N = 14): 0 (0) N (%) | Constipation, Grade 4 ([2]; treatment-related AE, N = 14): 0 (0) N (%) | Dyspnea, All Grades ([2]; treatment-related AE, N = 14): 10 (71) N (%) | Dyspnea, Grade 1 ([2]; treatment-related AE, N = 14): 7 (50) N (%) | Dyspnea, Grade 2 ([2]; treatment-related AE, N = 14): 3 (21) N (%) | Dyspnea, Grade 3 ([2]; treatment-related AE, N = 14): 0 (0) N (%) | Dyspnea, Grade 4 ([2]; treatment-related AE, N = 14): 0 (0) N (%) | Elevated aspartate aminotransferase, All Grades ([2]; treatment-related AE, N = 14): 6 (43) N (%) | Elevated aspartate aminotransferase, Grade 1 ([2]; treatment-related AE, N = 14): 6 (43) N (%) | Elevated aspartate aminotransferase, Grade 2 ([2]; treatment-related AE, N = 14): 0 (0) N (%) | Elevated aspartate aminotransferase, Grade 3 ([2]; treatment-related AE, N = 14): 0 (0) N (%) | Elevated aspartate aminotransferase, Grade 4 ([2]; treatment-related AE, N = 14): 0 (0) N (%) | Epistaxis, All Grades ([2]; treatment-related AE, N = 14): 8 (57) N (%) | Epistaxis, Grade 1 ([2]; treatment-related AE, N = 14): 7 (50) N (%) | Epistaxis, Grade 2 ([2]; treatment-related AE, N = 14): 1 (7) N (%) | Epistaxis, Grade 3 ([2]; treatment-related AE, N = 14): 0 (0) N (%) | Epistaxis, Grade 4 ([2]; treatment-related AE, N = 14): 0 (0) N (%) | Fatigue, All Grades ([2]; treatment-related AE, N = 14): 11 (79) N (%) | Fatigue, Grade 1 ([2]; treatment-related AE, N = 14): 5 (36) N (%) | Fatigue, Grade 2 ([2]; treatment-related AE, N = 14): 5 (36) N (%) | Fatigue, Grade 3 ([2]; treatment-related AE, N = 14): 1 (7%) N (%) and 1 (7) N (%) | Fatigue, Grade 4 ([2]; treatment-related AE, N = 14): 0 (0) N (%) | Headache, All Grades ([2]; treatment-related AE, N = 14): 9 (64) N (%) | Headache, Grade 1 ([2]; treatment-related AE, N = 14): 8 (57) N (%) | Headache, Grade 2 ([2]; treatment-related AE, N = 14): 1 (7) N (%) | Headache, Grade 3 ([2]; treatment-related AE, N = 14): 0 (0) N (%) | Headache, Grade 4 ([2]; treatment-related AE, N = 14): 0 (0) N (%) | Hyperglycemia, All Grades ([2]; treatment-related AE, N = 14): 7 (50) N (%) | Hyperglycemia, Grade 1 ([2]; treatment-related AE, N = 14): 7 (50) N (%) | Hyperglycemia, Grade 2 ([2]; treatment-related AE, N = 14): 0 (0) N (%) | Hyperglycemia, Grade 3 ([2]; treatment-related AE, N = 14): 0 (0) N (%) | Hyperglycemia, Grade 4 ([2]; treatment-related AE, N = 14): 0 (0) N (%) | Hypertension, All Grades ([2]; treatment-related AE, N = 14): 8 (57) N (%) | Hypertension, Grade 1 ([2]; treatment-related AE, N = 14): 4 (29) N (%) | Hypertension, Grade 2 ([2]; treatment-related AE, N = 14): 3 (21) N (%) | Hypertension, Grade 3 ([2]; treatment-related AE, N = 14): 1 (7%) N (%) and 1 (7) N (%) | Hypertension, Grade 4 ([2]; treatment-related AE, N = 14): 0 (0) N (%) | Leukopenia, All Grades ([2]; treatment-related AE, N = 14): 13 (93) N (%) | Leukopenia, Grade 1 ([2]; treatment-related AE, N = 14): 1 (7) N (%) | Leukopenia, Grade 2 ([2]; treatment-related AE, N = 14): 7 (50) N (%) | Leukopenia, Grade 3 ([2]; treatment-related AE, N = 14): 5 (36) N (%) | Leukopenia, Grade 4 ([2]; treatment-related AE, N = 14): 0 (0) N (%) | Lymphocytopenia, All Grades ([2]; treatment-related AE, N = 14): 12 (86) N (%) | Lymphocytopenia, Grade 1 ([2]; treatment-related AE, N = 14): 5 (36) N (%) | Lymphocytopenia, Grade 2 ([2]; treatment-related AE, N = 14): 5 (36) N (%) | Lymphocytopenia, Grade 3 ([2]; treatment-related AE, N = 14): 2 (14) N (%) | Lymphocytopenia, Grade 4 ([2]; treatment-related AE, N = 14): 0 (0) N (%) | Nausea, All Grades ([2]; treatment-related AE, N = 14): 12 (86) N (%) | Nausea, Grade 1 ([2]; treatment-related AE, N = 14): 9 (64) N (%) | Nausea, Grade 2 ([2]; treatment-related AE, N = 14): 3 (21) N (%) | Nausea, Grade 3 ([2]; treatment-related AE, N = 14): 0 (0) N (%) | Nausea, Grade 4 ([2]; treatment-related AE, N = 14): 0 (0) N (%) | Neutropenia, All Grades ([2]; treatment-related AE, N = 14): 11 (79) N (%) | Neutropenia, Grade 1 ([2]; treatment-related AE, N = 14): 0 (0) N (%) | Neutropenia, Grade 2 ([2]; treatment-related AE, N = 14): 3 (21) N (%) | Neutropenia, Grade 3 ([2]; treatment-related AE, N = 14): 6 (43%) N (%) and 6 (43) N (%) | Neutropenia, Grade 4 ([2]; treatment-related AE, N = 14): 2 (14%) N (%) and 2 (14) N (%) | Peripheral sensory neuropathy, All Grades ([2]; treatment-related AE, N = 14): 12 (86) N (%) | Peripheral sensory neuropathy, Grade 1 ([2]; treatment-related AE, N = 14): 6 (43) N (%) | Peripheral sensory neuropathy, Grade 2 ([2]; treatment-related AE, N = 14): 4 (29) N (%) | Peripheral sensory neuropathy, Grade 3 ([2]; treatment-related AE, N = 14): 2 (14%) N (%) and 2 (14) N (%) | Peripheral sensory neuropathy, Grade 4 ([2]; treatment-related AE, N = 14): 0 (0) N (%) | Rash maculo-papular, All Grades ([2]; treatment-related AE, N = 14): 10 (71) N (%) | Rash maculo-papular, Grade 1 ([2]; treatment-related AE, N = 14): 7 (50) N (%) | Rash maculo-papular, Grade 2 ([2]; treatment-related AE, N = 14): 3 (21) N (%) | Rash maculo-papular, Grade 3 ([2]; treatment-related AE, N = 14): 0 (0) N (%) | Rash maculo-papular, Grade 4 ([2]; treatment-related AE, N = 14): 0 (0) N (%) | Thrombocytopenia, All Grades ([2]; treatment-related AE, N = 14): 11 (79) N (%) | Thrombocytopenia, Grade 1 ([2]; treatment-related AE, N = 14): 4 (29) N (%) | Thrombocytopenia, Grade 2 ([2]; treatment-related AE, N = 14): 2 (14) N (%) | Thrombocytopenia, Grade 3 ([2]; treatment-related AE, N = 14): 4 (29%) N (%) and 4 (29) N (%) | Thrombocytopenia, Grade 4 ([2]; treatment-related AE, N = 14): 1 (7%) N (%) and 1 (7) N (%) | Hospitalizations for neutropenic fevers or other treatment-related toxicities [2]: no hospitalizations | G3 or higher thrombocytopenia, patients ([2]; N = 5): 36% | G3 or higher neutropenia, patients ([2]; N = 8): 57% | Patients with Grade 2/Grade 3 neuropathy requiring dose reduction of paclitaxel ([2]; six patients): 43% | CL/F ([3]; 10 mg dose, Cycle 1 Day 1, N = 8, mean ± SD): 3.21 ± 0.84 L/h | CL/F ([3]; 10 mg dose, Cycle 1 Day 15, N = 7, mean ± SD): 2.70 ± 1.07 L/h | CL/F ([3]; 10 mg dose, Cycle 1 Day 17, N = 6, mean ± SD): 1.97 ± 1.12 L/h | CL/F ([3]; 20 mg dose, Cycle 1 Day 1, N = 4, mean ± SD): 3.87 ± 1.09 L/h | CL/F [3, 5]: 3.90 ± 2.20 L/h | Half life [3, 5]: 36.0 ± 31.7 h | CL/F ([3]; 20 mg dose, Cycle 1 Day 17, N = 2, mean ± SD): 2.47 ± 2.55 L/h | Exposure on day 15 compared to day 1 ([3]; cycle 1): 125% | AUC (exposure) on day 17 compared to day 1 ([3]; cycle 1, both dose levels): 220% | Cmax on day 17 compared to day 1 ([3]; cycle 1, both dose levels): 158% | AUC(0-inf) [3, 6]: 3280 ± 749 ng·h/mL | AUC(0-inf) [3, 7]: 4120 ± 2140 ng·h/mL | AUC(0-inf) [3, 8]: 6210 ± 2610 ng·h/mL | Cmax [3, 6]: 203 ± 92.7 ng/mL | Cmax [3, 7]: 177 ± 93.6 ng/mL | Cmax [3, 8]: 259 ± 113 ng/mL | half-life [3, 6]: 14.7 ± 2.2 h | half-life [3, 7]: 20.1 ± 11.2 h | half-life [3, 8]: 20.6 ± 7 h | Vd/F [3, 7]: 76.8 ± 46.8 L | Vd/F [3, 8]: 55.6 ± 25.4 L | AUC(0-inf) [3, 9]: 5520 ± 1680 ng·h/mL | AUC(0-inf) [3, 10]: 6730 ± 4230 ng·h/mL | AUC(0-inf) [3, 11]: 17400 ng·h/mL | Cmax [3, 9]: 324 ± 116 ng/mL | Cmax [3, 10]: 234 ± 25 ng/mL | Cmax [3, 11]: 422 ± 42.6 ng/mL | half-life [3, 9]: 22.8 ± 12.4 h | half-life [3, 11]: 39.3 ± 39.9 h | Vd/F [3, 9]: 115 ± 38.6 L | Vd/F [3, 10]: 139 ± 37.5 L | Vd/F [3, 11]: 66.3 ± 2.4 L | pCR, patients (stage II-III TNBC; 5 of 14 patients, with paclitaxel and carboplatin): 36% | Patients with residual disease in the breast and lymph nodes (stage II-III TNBC; 5 patients, with paclitaxel and carboplatin): 36% | Overall response rate (stage II-III TNBC; 9 of 14 patients who completed chemotherapy (1 never received RO4929097)): 64% | Complete pathologic response (stage II-III TNBC; neoadjuvant, with paclitaxel and carboplatin, N = 14): 5 (36) N (%) | Residual disease (stage II-III TNBC; neoadjuvant, with paclitaxel and carboplatin, N = 14, one patient did not receive RO4929097): 9 (64)^a,b N (%) | QTc prolongation or other clinically significant ECG changes [4]: No QTc prolongation or other clinically significant ECG changes were observed
